Measurements published in patent publication US20090042987A1, “TREATMENT OF NEUROPATHIC PAIN” (priority 2007, published 2009).

System: drug-naïve STZ-diabetic rats
Assay: von Frey paw withdrawal thresholds, drug-naïve STZ-diabetic rats, Example 2
Assay type: in vivo, rat
Details: for Mean (±SEM) AUC (area under the normalized PWT versus time curve) / Mean (±SEM) Peak response (PWT) / Mean (±SEM) % MPR at peak: after 7th consecutive twice-daily dose; for Mean (±SEM) % MPR at peak: 100% MPR = full reversal of tactile allodynia
Method: Experimental Animals Ethical approval for this study was obtained from the Animal Experimentation Ethics Committee of The University of Queensland. Adult male Sprague-Dawley (SD) rats (222±4 g) were used for this study. Rats were housed in a temperature controlled room (21+2.0 C) with a 12/12 hour light/dark cycle. Food and water were available ad libitum. Initiation of drug administration occurred at 8-11 weeks post-STZ administration for rats in Experiment 1 (PCT-001) and at 10-12 weeks post-STZ administration for rats in Experiment 2 (PCT-007).
Test Article Tranilast was supplied by the Sponsor and stored at −4° C. until use. Gabapentin (100 mg/kg, dissolved in water for injection) was utilized as the positive control for this study.
Test Article and Vehicle Preparation Test article formulations were prepared freshly on the day of administration by weighing the appropriate amount of bulk powder and suspending it in the required volume of vehicle. Carboxymethyl cellulose ((CMC) 0.5% in water for injection) was utilized as the vehicle for this study.
Test Article Administration. […] The maximum oral gavage volume administered in this study was […]. 4.4
STZ-Diabetic Rat Model of Painful Diabetic Neuropathy. Painful diabetic neuropathy is a common long-term complication of diabetes in humans that develops as a result of a sustained biochemical nerve injury. […] Following the induction of diabetes with intravenous STZ at 70-80 mg/kg, it generally takes 6-8 wks for tactile allodynia, the defining symptom of PDN, to fully develop in both rat hindpaws.
Induction of STZ-Diabetes in Rats. On day 0, rats were anaesthetized with 3% isoflurane:97% O2 and a short polyethylene cannula (0.5 mm ID, 0.8 mm OD) was inserted into the jugular vein to facilitate the intravenous (i.v.) administration of a single dose of streptozotocin (STZ: 70-80 mg/kg). After STZ injection, the cannula was removed and the jugular vein was tied off and the wound was closed. Rats received subcutaneous benzylpenicillin (60 mg) prior to surgery to prevent infection and were kept warm during surgical recovery. Rats were housed singly prior to further experimentation and were monitored daily from the time of STZ administration with regard to general health and well-being.
Von Frey Assessment of Paw Withdrawal Thresholds. Calibrated von Frey filaments were used to determine the lowest mechanical threshold required to evoke a brisk paw withdrawal reflex in the rat hindpaws. Briefly, rats were transferred individually to wire mesh testing cages (20 cm×20 cm×20 cm) and allowed to acclimatize for approximately 10-20 min prior to von Frey testing. Commencing with the von Frey filament that produced the 6 g force, the filament was applied to the plantar surface of the hindpaw until the filament buckled slightly. Absence of a response after 3 s prompted use of the next filament of increasing weight. A withdrawal response within 3 s prompted use of the next filament of decreasing weight. Filaments used produced buckling weights of 2, 4, 6, 8, 10, 12, 14, 16, 18 and 20 g. […] Tactile allodynia is regarded as being fully developed when von Frey PWTs in the injured hindpaws are <6 g.
Restoring von-Frey PWTs in the hindpaws from <6 g to pre-STZ surgery levels (12±2 g) is the treatment goal representing full reversal of tactile allodynia. If drug treatment increases PWTs above pre-surgical baseline values (i.e. >12±2 g), such a response is classified as antinociception. Before administration of STZ, baseline von Frey measurements were assessed. Following STZ administration, baseline PWTs were assessed in the hindpaws at week 8-11 to confirm the development of diabetes-induced tactile allodynia.
Dose-Response Curve for Tranilast in Drug-Naive STZ-Diabetic Rats. […]

Q: For `COc1ccc(/C=C/C(=O)Nc2ccccc2C(=O)O)cc1OC` [Tranilast, 2-[[3-(3,4-dimethoxyphenyl)-1-oxo-2-propenyl]amino]benzoic acid], which “Mean (±SEM) von Frey Paw Withdrawal threshold assessed prior to dose” value (tranilast 100 mg/kg oral twice-daily, prior to dose 1) is on record?
A: 4.8 ± 0.5 g

Q: And the “Mean (±SEM) von Frey Paw Withdrawal threshold assessed prior to dose” value (tranilast 100 mg/kg oral twice-daily, prior to dose 3)?
A: 4.4 ± 0.7 g

Q: And the “Mean (±SEM) von Frey Paw Withdrawal threshold assessed prior to dose” value (tranilast 100 mg/kg oral twice-daily, prior to dose 5)?
A: 5.1 ± 0.5 g

Q: What about the “Mean (±SEM) von Frey Paw Withdrawal threshold assessed prior to dose” value (tranilast 100 mg/kg oral twice-daily, prior to dose 7) of the same compound?
A: 5.3 ± 0.5 g

Q: And the “Mean (±SEM) von Frey Paw Withdrawal threshold following the 7th consecutive dose” value (tranilast 100 mg/kg oral twice-daily, time 0 h (pre-dose))?
A: 5.3 ± 0.4 g

Q: What about the “Mean (±SEM) von Frey Paw Withdrawal threshold following the 7th consecutive dose” value (tranilast 100 mg/kg oral twice-daily, time 0.15 h) of the same compound?
A: 6.0 ± 0 g

Q: What about the “Mean (±SEM) von Frey Paw Withdrawal threshold following the 7th consecutive dose” value (tranilast 100 mg/kg oral twice-daily, time 0.5 h) of the same compound?
A: 7.25 ± 0.5 g

Q: And the “Mean (±SEM) von Frey Paw Withdrawal threshold following the 7th consecutive dose” value (tranilast 100 mg/kg oral twice-daily, time 0.75 h)?
A: 7.75 ± 0.25 g

Q: What about the “Mean (±SEM) von Frey Paw Withdrawal threshold following the 7th consecutive dose” value (tranilast 100 mg/kg oral twice-daily, time 1 h) of the same compound?
A: 8.25 ± 0.5 g

Q: What about the “Mean (±SEM) von Frey Paw Withdrawal threshold following the 7th consecutive dose” value (tranilast 100 mg/kg oral twice-daily, time 1.25 h) of the same compound?
A: 8.0 ± 0 g

Q: What about the “Mean (±SEM) von Frey Paw Withdrawal threshold following the 7th consecutive dose” value (tranilast 100 mg/kg oral twice-daily, time 1.5 h) of the same compound?
A: 6.75 ± 0.5 g

Q: What about the “Mean (±SEM) von Frey Paw Withdrawal threshold following the 7th consecutive dose” value (tranilast 100 mg/kg oral twice-daily, time 2 h) of the same compound?
A: 7.0 ± 0.6 g

Q: What about the “Mean (±SEM) von Frey Paw Withdrawal threshold following the 7th consecutive dose” value (tranilast 100 mg/kg oral twice-daily, time 3 h) of the same compound?
A: 6.25 ± 0.3 g

Q: And the “Mean (±SEM) AUC (area under the normalized PWT versus time curve)” value (tranilast 100 mg/kg oral)?
A: 4.98 ± 1.7

Q: What about the “Mean (±SEM) Peak response (PWT)” value (tranilast 100 mg/kg oral) of the same compound?
A: 8.25 ± 0.5

Q: And the “Mean (±SEM) % MPR at peak” value (tranilast 100 mg/kg oral)?
A: 53.2 ± 3.3%

Q: And the “Mean (±SEM) von Frey Paw Withdrawal threshold assessed prior to dose” value (tranilast 200 mg/kg oral twice-daily, prior to dose 1)?
A: 4.9 ± 0.6 g

Q: What about the “Mean (±SEM) von Frey Paw Withdrawal threshold assessed prior to dose” value (tranilast 200 mg/kg oral twice-daily, prior to dose 3) of the same compound?
A: 5.2 ± 0.6 g

Q: What about the “Mean (±SEM) von Frey Paw Withdrawal threshold assessed prior to dose” value (tranilast 200 mg/kg oral twice-daily, prior to dose 5) of the same compound?
A: 5.2 ± 0.5 g

Q: And the “Mean (±SEM) von Frey Paw Withdrawal threshold assessed prior to dose” value (tranilast 200 mg/kg oral twice-daily, prior to dose 7)?
A: 5.2 ± 0.5 g

Q: And the “Mean (±SEM) von Frey Paw Withdrawal threshold following the 7th consecutive dose” value (tranilast 200 mg/kg oral twice-daily, time 0 h (pre-dose))?
A: 5.2 ± 0.4 g

Q: And the “Mean (±SEM) von Frey Paw Withdrawal threshold following the 7th consecutive dose” value (tranilast 200 mg/kg oral twice-daily, time 0.15 h)?
A: 5.75 ± 0.7 g

Q: What about the “Mean (±SEM) von Frey Paw Withdrawal threshold following the 7th consecutive dose” value (tranilast 200 mg/kg oral twice-daily, time 0.5 h) of the same compound?
A: 7.25 ± 0.5 g

Q: And the “Mean (±SEM) von Frey Paw Withdrawal threshold following the 7th consecutive dose” value (tranilast 200 mg/kg oral twice-daily, time 0.75 h)?
A: 8.25 ± 0.25 g

Q: And the “Mean (±SEM) von Frey Paw Withdrawal threshold following the 7th consecutive dose” value (tranilast 200 mg/kg oral twice-daily, time 1 h)?
A: 8.75 ± 0.5 g

Q: What about the “Mean (±SEM) von Frey Paw Withdrawal threshold following the 7th consecutive dose” value (tranilast 200 mg/kg oral twice-daily, time 1.25 h) of the same compound?
A: 7.25 ± 0.25 g

Q: What about the “Mean (±SEM) von Frey Paw Withdrawal threshold following the 7th consecutive dose” value (tranilast 200 mg/kg oral twice-daily, time 1.5 h) of the same compound?
A: 7.0 ± 0.5 g

Q: And the “Mean (±SEM) von Frey Paw Withdrawal threshold following the 7th consecutive dose” value (tranilast 200 mg/kg oral twice-daily, time 2 h)?
A: 7.25 ± 0.25 g

Q: What about the “Mean (±SEM) von Frey Paw Withdrawal threshold following the 7th consecutive dose” value (tranilast 200 mg/kg oral twice-daily, time 3 h) of the same compound?
A: 6.0 ± 0 g

Q: What about the “Mean (±SEM) AUC (area under the normalized PWT versus time curve)” value (tranilast 200 mg/kg oral) of the same compound?
A: 5.75 ± 0.7

Q: And the “Mean (±SEM) Peak response (PWT)” value (tranilast 200 mg/kg oral)?
A: 8.75 ± 0.5

Q: And the “Mean (±SEM) % MPR at peak” value (tranilast 200 mg/kg oral)?
A: 62.6 ± 11.7%

Q: What about the “Mean (±SEM) von Frey Paw Withdrawal threshold assessed prior to dose” value (tranilast 300 mg/kg oral twice-daily, prior to dose 1) of the same compound?
A: 4.2 ± 0.6 g

Q: And the “Mean (±SEM) von Frey Paw Withdrawal threshold assessed prior to dose” value (tranilast 300 mg/kg oral twice-daily, prior to dose 3)?
A: 3.7 ± 0.8 g

Q: And the “Mean (±SEM) von Frey Paw Withdrawal threshold assessed prior to dose” value (tranilast 300 mg/kg oral twice-daily, prior to dose 5)?
A: 3.9 ± 0.7 g

Q: What about the “Mean (±SEM) von Frey Paw Withdrawal threshold assessed prior to dose” value (tranilast 300 mg/kg oral twice-daily, prior to dose 7) of the same compound?
A: 4.8 ± 0.6 g

Q: What about the “Mean (±SEM) von Frey Paw Withdrawal threshold following the 7th consecutive dose” value (tranilast 300 mg/kg oral twice-daily, time 0 h (pre-dose)) of the same compound?
A: 4.8 ± 0.5 g

Q: And the “Mean (±SEM) von Frey Paw Withdrawal threshold following the 7th consecutive dose” value (tranilast 300 mg/kg oral twice-daily, time 0 h (pre-dose), listed as tranilast)?
A: 4.8 (±0.5) g

Q: And the “Mean (±SEM) von Frey Paw Withdrawal threshold following the 7th consecutive dose” value (tranilast 300 mg/kg oral twice-daily, time 0.15 h)?
A: 5.4 ± 0.7 g

Q: And the “Mean (±SEM) von Frey Paw Withdrawal threshold following the 7th consecutive dose” value (tranilast 300 mg/kg oral twice-daily, time 0.5 h)?
A: 8.6 ± 1.5 g
